The molecules below were run against phosphorylated active hERK2 enzyme (Homo sapiens (Human), UniProt P28482) (assay: Active Human ERK2 (hERK2) Activity Assay (IMAP-FP)). Conditions: Table 6, 0.5 nM hERK2, 30 μM ATP, 10 point titration, read-out: AERK2 IC50.
Format: biochemical
Method in brief: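 IMAP detection beads in buffer with 24 mM NaCl stopped the reaction, and fluorescence polarization was read after 60 min binding.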

Sequence of phosphorylated active hERK2 enzyme (P28482 whole entry): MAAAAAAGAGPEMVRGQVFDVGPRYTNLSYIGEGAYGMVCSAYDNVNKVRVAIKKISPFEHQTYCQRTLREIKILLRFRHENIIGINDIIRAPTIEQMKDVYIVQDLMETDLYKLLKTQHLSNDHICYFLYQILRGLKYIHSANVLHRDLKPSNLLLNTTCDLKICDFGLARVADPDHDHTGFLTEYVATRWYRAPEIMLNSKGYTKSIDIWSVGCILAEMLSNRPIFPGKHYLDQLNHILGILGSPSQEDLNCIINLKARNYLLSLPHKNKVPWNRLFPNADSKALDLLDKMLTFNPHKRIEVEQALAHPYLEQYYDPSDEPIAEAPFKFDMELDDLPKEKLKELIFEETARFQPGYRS

SMILES | IC50
C[C@@H](NC(=O)Nc1cc2[nH]nc(NCC3CCCOC3)c2cn1)c1ccccc1 (stereo partly drawn) [Example 167, 1-[(1R)-1-phenylethyl]-3-{3-[(tetrahydro-2H-pyran-3-yl-methyl)amino]-1H-pyrazolo[4,3-c]pyridin-6-yl}urea] | 4.2 nM
C[C@@H](NC(=O)Nc1cc2[nH]nc(NC3CNC3)c2cn1)c1ccccc1 [Example 168, 1-[3-(azetidin-3-ylamino)-1H-pyrazolo[4,3-c]-pyridin-6-yl]-3-[(1R)-1-phenylethyl]urea] | 31.7 nM
C[C@@H](NC(=O)Nc1cc2[nH]nc(NC3CC(N(C)C)C3)c2cn1)c1ccccc1 (stereo partly drawn) [Example 169, 1-(3-{[3-(dimethylamino)-cyclobutyl]amino}-1H-pyrazolo[4,3-c]pyridin-6-yl)-3-[(1R)-1-phenylethyl]urea] | 50.2 nM
COC1CC(CNc2n[nH]c3cc(NC(=O)N[C@H](C)c4ccccc4)ncc23)C1 (stereo partly drawn) [Example 170, 1-(3-{[(3-methoxy-cyclobutyl)methyl]amino}-1H-pyrazolo[4,3-c]-pyridin-6-yl)-3-[(1R)-1-phenylethyl]urea] | 2.7 nM
CC(Nc1n[nH]c2cc(NC(=O)N[C@H](C)c3ccccc3)ncc12)C1CCOCC1 (stereo partly drawn) [Example 171, 1-[(1R)-1-phenylethyl]-3-(3-{[1-(tetrahydro-2H-pyran-4-yl)-ethyl]amino}-1H-pyrazolo[4,3-c]-pyridin-6-yl)urea] | 4.1 nM
C[C@@H](NC(=O)Nc1cc2[nH]nc(NC3CCC(N(C)C)CC3)c2cn1)c1ccccc1 (stereo partly drawn) [Example 172, 1-(3-{[4-(dimethylamino)-cyclohexyl]amino}-1H-pyrazolo[4,3-c]pyridin-6-yl)-3-[(1R)-1-phenylethyl]urea] | 31.2 nM
CC1=NOC(CNc2n[nH]c3cc(NC(=O)N[C@H](C)c4ccccc4)ncc23)C1 (stereo partly drawn) [Example 173, 1-(3-{[(3-methyl-4,5-dihydro-isoxazol-5-yl)-methyl]amino}-1H-pyrazolo[4,3-c]-pyridin-6-yl)-3-[(1R)-1-phenylethyl]urea] | 5.8 nM
C[C@@H](NC(=O)Nc1cc2[nH]nc(NC3CCCOC3)c2cn1)c1ccccc1 (stereo partly drawn) [Example 174, 1-[(1R)-1-phenylethyl]-3-[3-(tetrahydro-2H-pyran-3-ylamino)-1H-pyrazolo[4,3-c]pyridin-6-yl]urea] | 4.4 nM
CC(CN1CCOCC1)Nc1n[nH]c2cc(NC(=O)N[C@H](C)c3ccccc3)ncc12 (stereo partly drawn) [Example 175, 1-{3-[(1-methyl-2-morpholin-4-ylethyl)amino]-1H-pyrazolo[4,3-c]pyridin-6-yl}-3-[(1R)-1-phenylethyl]urea] | 33.8 nM
CC(CC1CCCCN1)Nc1n[nH]c2cc(NC(=O)N[C@H](C)c3ccccc3)ncc12 (stereo partly drawn) [Example 176, 1-{3-[(1-methyl-2-piperidin-2-ylethyl)amino]-1H-pyrazolo[4,3-c]pyridin-6-yl}-3-[(1R)-1-phenylethyl]urea] | 38.2 nM
C[C@@H](NC(=O)Nc1cc2[nH]nc(NCC3CC(C(C)(C)O)C3)c2cn1)c1ccccc1 (stereo partly drawn) [Example 177, 1-[3-({[3-(1-hydroxy-1-methyl-ethyl)cyclobutyl]-methyl}amino)-1H-pyrazolo[4,3-c]pyridin-6-yl]-3-[(1R)-1-phenylethyl]urea] | 12 nM
C[C@@H](NC(=O)Nc1cc2[nH]nc(NCc3ccccc3)c2cn1)c1ccccc1 [Example 178, 1-[3-(benzyl-amino)-1H-pyrazolo[4,3-c]-pyridin-6-yl]-3-1-[(1R)-1-phenylethyl]urea] | 4.6 nM
C[C@@H](NC(=O)Nc1cc2[nH]nc(NCc3ccncc3)c2cn1)c1ccccc1 [Example 179, 1-[(1R)-1-phenylethyl]-3-{3-[(pyridin-4-yl-methyl)amino]-1H-pyrazolo[4,3-c]-pyridin-6-yl}urea] | 1 nM
C=C(C)C1CC(CNc2n[nH]c3cc(NC(=O)N[C@H](C)c4ccccc4)ncc23)C1 (stereo partly drawn) [Example 180, 1-[3-({[3-(1-methylethenyl)-cyclobutyl]methyl}amino)-1H-pyrazolo[4,3-c]-pyridin-6-yl]-3-[(1R)-1-phenylethyl]urea] | 17.9 nM
C[C@@H](NC(=O)Nc1cc2[nH]nc(NC(=O)C3CCOCC3)c2cn1)c1ccccc1 [Example 181, N-[6-({[(1R)-1-phenylethyl]-carbamoyl}amino)-1H-pyrazolo[4,3-c]pyridin-3-yl]-tetrahydro-2H-pyran-4-carboxamide] | 4.3 nM
COC[C@@H](NC(=O)Nc1cc2[nH]nc(NCC3CC(C(C)(C)O)C3)c2cn1)c1ccccc1 (stereo partly drawn) [Example 182, 1-[3-({[3-(1-hydroxy-1-methylethyl)-cyclobutyl]methyl}amino)-1H-pyrazolo[4,3-c]pyridin-6-yl]-3-[(1S)-2-methoxy-1-phenylethyl]urea] | 2.6 nM
COC[C@@H](NC(=O)Nc1cc2[nH]nc(NCC3CC(C(C)(C)O)C3)c2cn1)c1ccccc1 (stereo partly drawn) [Example 183, 1-[3-({[3-(1-hydroxy-1-methylethyl)-cyclobutyl]methyl}amino)-1H-pyrazolo[4,3-c]pyridin-6-yl]-3-[(1S)-2-methoxy-1-phenylethyl]urea] | 3.6 nM
C[C@@H](NC(=O)Nc1cc2[nH]nc(NC3CCNC3)c2cn1)c1ccccc1 (stereo partly drawn) [Example 184, 1-[(1R)-1-phenylethyl]-3-[3-(pyrrolidin-3-ylamino)-1H-pyrazolo[4,3-c]pyridin-6-yl]urea] | 102 nM

SMILES | IC50
C[C@@H](NC(=O)Nc1cc2[nH]nc(NC3CCC3)c2cn1)c1ccccc1 [Example 185, 1-[3-(cyclobutylamino)-1H-pyrazolo[4,3-c]pyridin-6-yl]-3-[(1R)-1-phenylethyl]urea] | 1.5 nM
C[C@@H](NC(=O)Nc1cc2[nH]nc(NC3CCCC3)c2cn1)c1ccccc1 [Example 186, 1-[3-(cyclopentyl-amino)-1H-pyrazolo[4,3-c]-pyridin-6-yl]-3-[(1R)-1-phenylethyl]urea] | 2.3 nM
C[C@@H](NC(=O)Nc1cc2[nH]nc(NC3CCCCC3)c2cn1)c1ccccc1 [Example 187, 1-[3-(cyclohexyl-amino)-1H-pyrazolo[4,3-c]pyridin-6-yl]-3-[(1R)-1-phenylethyl]urea] | 6.8 nM
C[C@@H](NC(=O)Nc1cc2[nH]nc(NC3COC3)c2cn1)c1ccccc1 [Example 188, 1-[3-(oxetan-3-yl-amino)-1H-pyrazolo[4,3-c]pyridin-6-yl]-3-[(1R)-1-phenylethyl]urea] | 146 nM
CC(C)CNc1n[nH]c2cc(NC(=O)N[C@H](C)c3ccccc3)ncc12 [Example 189, 1-{3-[(2-methylpropyl)-amino]-1H-pyrazolo[4,3-c]-pyridin-6-yl}-3-[(1R)-1-phenylethyl]urea] | 1.7 nM
C[C@@H](NC(=O)Nc1cc2[nH]nc(NCc3ccccn3)c2cn1)c1ccccc1 [Example 190, 1-[(1R)-1-phenylethyl]-3-{3-[(pyridin-2-yl-methyl)amino]-1H-pyrazolo[4,3-c]-pyridin-6-yl}urea] | 9.3 nM
CC(CC(C)(C)O)Nc1n[nH]c2cc(NC(=O)N[C@H](C)c3ccccc3)ncc12 (stereo partly drawn) [Example 191, 1-{3-[(3-hydroxy-1,3-dimethylbutyl)-amino]-1H-pyrazolo[4,3-c]-pyridin-6-yl}-3-[(1R)-1-phenylethyl]urea] | 64.3 nM
CC(CS(C)(=O)=O)Nc1n[nH]c2cc(NC(=O)N[C@H](C)c3ccccc3)ncc12 (stereo partly drawn) [Example 192, 1-(3-{[1-methyl-2-(methylsulfonyl)-ethyl]amino}-1H-pyrazolo[4,3-c]-pyridin-6-yl)-3-[(1R)-1-phenylethyl]urea] | 79.8 nM
C[C@@H](NC(=O)Nc1cc2[nH]nc(NCCN3CCOCC3)c2cn1)c1ccccc1 [Example 194, 1-{3-[(2-morpholin-4-ylethyl)amino]-1H-pyrazolo[4,3-c]-pyridin-6-yl}-3-[(1R)-1-phenylethyl]urea] | 28.4 nM
C[C@@H](NC(=O)Nc1cc2[nH]nc(NC3CCC(F)(F)CC3)c2cn1)c1ccccc1 [Example 195, 1-{3-[(4,4-difluorocyclohexyl)amino]-1H-pyrazolo[4,3-c]-pyridin-6-yl}-3-[(1R)-1-phenylethyl]urea] | 10.2 nM
C[C@@H](NC(=O)Nc1cc2[nH]nc(NCC3CCCCO3)c2cn1)c1ccccc1 (stereo partly drawn) [Example 196, 1-[(1R)-1-phenylethyl]-3-{3-[(tetrahydro-2H-pyran-2-yl-methyl)amino]-1H-pyrazolo[4,3-c]-pyridin-6-yl}urea] | 27.9 nM
CC(CCl)Nc1n[nH]c2cc(NC(=O)N[C@H](C)c3ccccc3)ncc12 (stereo partly drawn) [Example 197, 1-{3-[(2-chloro-1-methylethyl)amino]-1H-pyrazolo[4,3-c]pyridin-6-yl}-3-[(1R)-1-phenylethyl]urea] | 3.1 nM
COC[C@@H](NC(=O)Nc1cc2[nH]nc(NC3COC3)c2cn1)c1ccccc1 [Example 198, 1-[(1S)-2-methoxy-1-phenylethyl]-3-[3-(oxetan-3-yl-amino)-1H-pyrazolo[4,3-c]-pyridin-6-yl]urea] | 0.5 nM
C[C@@H](NC(=O)Nc1cc2[nH]nc(NC(=O)CC(F)(F)F)c2cn1)c1ccccc1 [Example 199, 3,3,3-trifluoro-N-[6-({[(1R)-1-phenylethyl]-carbamoyl}amino)-1H-pyrazolo[4,3-c]-pyridin-3-yl]-propanamide] | 1.1 nM
Cc1nnsc1C(=O)Nc1n[nH]c2cc(NC(=O)N[C@H](C)c3ccccc3)ncc12 [Example 200, 4-methyl-N-[6-({[(1R)-1-phenylethyl]-carbamoyl}amino)-1H-pyrazolo[4,3-c]pyridin-3-yl]-1,2,3-thiadiazole-5-carboxamide] | 1.1 nM
C[C@@H](NC(=O)Nc1cc2[nH]nc(NC(=O)C3CCC3)c2cn1)c1ccccc1 [Example 201, N-[6-({[(1R)-1-phenylethyl]-carbamoyl}amino)-1H-pyrazolo[4,3-c]pyridin-3-yl]-cyclobutane-carboxamide] | 0.5 nM
C[C@@H](NC(=O)Nc1cc2[nH]nc(NC(=O)Cc3ccccc3)c2cn1)c1ccccc1 [Example 202, 2-phenyl-N-[6-({[(1R)-1-phenylethyl]-carbamoyl}amino)-1H-pyrazolo[4,3-c]pyridin-3-yl]-acetamide] | 0.6 nM

From patent US9233979B2, “Compounds that are ERK inhibitors” (Merck Sharp & Dohme Corp., priority 2012, dated 2016)
